Measured values as given in patent US7070965B1, “Small molecule anticancer compounds and related production process” (priority 1998, dated 2006).
Converted amounts (≈) assume the structure as drawn.

Experiments:
[1] = tested on: SNU-1 human gastric carcinoma; test: Cytotoxicity ID50/ID75/ID90, viability assessment; assay type: cell-based; conditions: 48 hours
Experimental: (§1) PBLs, K-562 and SNU-1 cells in suspension culture were seeded in 96-well microplates at a density of 5×10^4 cells/well for K-562 and SNU-1, and 1×10^5 cells/well for PBLs. iso-C15 were diluted with medium to provide different concentrations (0, 1.5, 3.0, 6.0, 15.0, 30.0, and 60.0 μg/ml). Both untreated and solvent (NaOH and Tween 80) treated cells served as controls. After incubation for 48 hours at 37° C., cells were collected directly from the wells for viability assessment.
(§2) The ID50, ID75 and ID90 were determined in duplicate in every set of experiments, and each experiment was repeated three times under identical conditions. ID50, ID75 and ID90 were defined as the concentration of iso-C15 required to kill 50, 75 or 90%, respectively, of cells (compared with that in untreated cells) and computed using CalcuSyn for Windows software (Biosoft, Cambridge UK) based on Median Effect method by Dr. T. C. Chou.

K-562 human leukemia = test: Cytotoxicity ID50/ID75/ID90, viability assessment; assay type: cell-based; conditions: 48 hours
Experimental: as §1, §2

[2] = tested on: normal human peripheral blood lymphocytes (PBL); test: Cytotoxicity on normal cells, viability assessment; assay type: cell-based; conditions: at concentrations lethal to tumor cells
Experimental: as §1, §2

[3] = tested on: Human leukemia cell line K562; test: MTT assay, inhibition of cell growth; assay type: cell-based; conditions: for Inhibitory rate (%) on cell growth: 24 hours, dissolved with 10% ethanol, listed as extracted iso-C15
Experimental: (§3) MTT assay was performed to test the cytotoxicity. The K562 and SGC7901 cells were maintained in exponential growth in RPMI 1640 medium supplemented with 15% heat-inactivated newborn calf serum. The cells were plated at a density of 2×10^4 cells/100 μl medium/well into 96-well plate with medium containing samples in five final concentrations (7.5, 15, 30, 60 and 90 μg/ml) for iso-C15 (either synthesized or extracted) and one final concentration (30 μg/ml) for the others. The media in control wells contained no samples. The cells were incubated at 37° C. in a highly humidified incubator under 5% CO2 atmosphere for 24 hours. The supernatant was removed by fast inversion of the plate. 20 μl of 5 mg/ml MTT solution were added into each well. Incubation was continued for 4 hours. DMSO 100 μl/well was added and the plate was vibrated for 10 minutes. A570nm was read at the Immunoreader BioTek EL311S.
(§4) The inhibition rate (%)=1−(mean A570nm in test wells/mean A570nm in control wells)

[4] = tested on: human gastric cancer cell line SGC7901; test: MTT assay, inhibition of cell growth; assay type: cell-based; conditions: dissolved with 10% ethanol; for Inhibitory rate (%) on cell growth: 24 hours, listed as extracted iso-C15
Experimental: as §3, §4

K562 leukemia cell line = test: DNA fragmentation gel electrophoresis; assay type: cell-based, human; conditions: 60 μg/ml
Experimental: The gel electrophoresis assay was used for the detection of apoptosis-specific internucleosonal DNA degradation in these cells. […] After centrifuged at 14,000 RPM for 20 min at 4° C., the supernatants were transferred to new tubes and treated with RNase and proteinase K respectively. Supernatants were extracted with phenol/chloroform twice, and fragmented DNA was precipitated in ethanol. Samples were electrophoresed in a 1.5% agarose gel in 1× TAE buffer. The gel was stained with ethidium bromide and destained with distilled water. The fragmented DNA was then visualized under UV light.

DU145 cancer cells = test: In situ cell death detection, POD; assay type: cell-based, human; conditions: 60 μg/ml, 8 hours
Source text: In Situ Cell Death Detection Kit, POD (Mannheim Boehringer GmbH) was used to detect the individual apoptotic cells. Cleavage of genomic DNA during apoptosis may yield double-stranded, low molecular weight DNA fragments as well as single strand breaks in high molecular weight DNA. Those DNA strand breaks can be identified by labeling free 3′-OH termini with modified nucleotides in an enzymatic reaction. In this kit terminal deoxynucleotidyl transferase (TdT) is used to label free 3′-OH ends in genomic DNA with fluorescein-dUTP. The incorporated fluorescein is visualized under fluorescence microscope directly. The incorporated fluorescein can also bind to anti-fluorescein antibody POD and be detected by substrate reaction. Stained cells can be analyzed under light microscope.
H1688, K-562 and DU145 human cancer cells and normal human PBLs were added with POD and incubated 30 min at 37° C., washed three times with PBS, then reacted with substrate AEC and incubated for 10 min at room temperature. The cells were analyzed under light microscope. […] It is evidenced that iso-C15 induces apoptosis of cancer cells but not normal human cells.

[5] = tested on: human hepatocellular carcinoma LCI-D35; test: Orthotopic nude mice model of human hepatocellular carcinoma LCI-D35; assay type: in vivo, athymic BALB/c nude mice
Experimental: 13-methyltetradecanoic acid (iso-C15) was chemically synthesized in the inventor's laboratory, as described in Example 5, infra, (purity of 99.8%), was prepared by dissolving in NaOH solution and then in 0.35% Tween 80 with pH7.5.
Total of 16 male and female athymic BALB/c nude mice between 4 and 5 weeks of age were bred and maintained in specific pathogen free condition.
Human hepatocellular carcinoma LCI-D35 was originally obtained from the primary tumor of a patient. The tumor was implanted and maintained subcutaneously in athymic nude mice. Prior to orthotopic implantation, the tumor was harvested in log phase. The peripheral tumor tissue was collected and minced to small pieces of one cubic millimeter each.
The mice were anesthetized for surgical orthotopic implantation. A small incision was made along the midline of the upper abdomen. The left lobe of the liver was exposed and a small incision was made on the liver surface. Two of the tumor fragments above were sutured into the incision using 8-0 suture. The abdomen was then closed using a 6-0 surgical suture.
The mice bearing orthotopic LCI-D35 were randomly divided into control and test groups of eight mice each at the second day after tumor implantation. The iso-C15 prepared above at dose 70 mg/kg and PBS were administered by gavage once a day in the test and control group, respectively, for 40 days.
All the mice were sacrificed by CO2 inhalation at day-40 after the start of treatment. The weights of primary tumors and bodies were measured. Tissue samples of the primary tumors were processed through standard procedures of hematoxylin and eosin staining for microscopic examination.
The tumor inhibition rates (TIR) were determined by comparing the mean tumor weight of the test groups (T) with that of the control group (C) and expressed as a (C)−T)/C percentage, and were analyzed by Student's test for statistical significance.

## CC(C)CCCCCCCCCCCC(=O)O [iso-C15, 13-methyltetradecanoic acid]
[1]
  ID75: 47.43 ± 4.95 µg/mL (≈ 196 µM)
  ID90: 80.49 ± 10.03 µg/mL (≈ 332 µM)
K-562 human leukemia
  ID75: 22.27 ± 4.60 µg/mL (≈ 91.9 µM)
  ID90: 43.57 ± 6.71 µg/mL (≈ 180 µM)
[2]
  toxicity against normal human peripheral blood lymphocytes: not toxic against normal human peripheral blood lymphocytes
[3]; 7.5 μg/ml
  Inhibitory rate (%) on cell growth: 27.1%
[3]; 15 μg/ml
  Inhibitory rate (%) on cell growth: 51.2%
[3]; 30 μg/ml
  Inhibitory rate (%) on cell growth: 72.2%
[3]; 60 μg/ml
  Inhibitory rate (%) on cell growth: 83.7%
[3]; 90 μg/ml
  Inhibitory rate (%) on cell growth: 87.2%
[3]; Homo sapiens, K562, 24 h, read-out: Inhibitory rate (%) on cell growth, 7.5 μg/ml, dissolved with 10% ethanol
  inhibition at 7.5 µg/mL: 26.2%
[3]; Homo sapiens, K562, 24 h, read-out: Inhibitory rate (%) on cell growth, 15 μg/ml, dissolved with 10% ethanol
  inhibition at 15 µg/mL: 50.1%
[3]; Homo sapiens, K562, 24 h, read-out: Inhibitory rate (%) on cell growth, 30 μg/ml, dissolved with 10% ethanol
  inhibition at 30 µg/mL: 71.6%
[3]; Homo sapiens, K562, 24 h, read-out: Inhibitory rate (%) on cell growth, 60 μg/ml, dissolved with 10% ethanol
  inhibition at 60 µg/mL: 83.1%
[3]; Homo sapiens, K562, 24 h, read-out: Inhibitory rate (%) on cell growth, 90 μg/ml, dissolved with 10% ethanol
  inhibition at 90 µg/mL: 85.3%
[4]; 15 μg/ml
  Inhibitory rate (%) on cell growth: 28.1%
[4]; 30 μg/ml
  Inhibitory rate (%) on cell growth: 51.2%
[4]; 60 μg/ml
  Inhibitory rate (%) on cell growth: 62.1%
[4]; 90 μg/ml
  Inhibitory rate (%) on cell growth: 68.8%
[4]; Homo sapiens, SGC-7901, 24 h, 15 μg/ml, read-out: Inhibitory rate (%) on cell growth
  inhibition at 15 µg/mL: 27.5%
[4]; Homo sapiens, SGC-7901, 24 h, 30 μg/ml, read-out: Inhibitory rate (%) on cell growth
  inhibition at 30 µg/mL: 50.5%
[4]; Homo sapiens, SGC-7901, 24 h, 60 μg/ml, read-out: Inhibitory rate (%) on cell growth
  inhibition at 60 µg/mL: 63.1%
[4]; Homo sapiens, SGC-7901, 24 h, 90 μg/ml, read-out: Inhibitory rate (%) on cell growth
  inhibition at 90 µg/mL: 68.4%
K562 leukemia cell line
  apoptotic DNA fragmentation: fragmented low molecular weight DNA bands were seen at 2 hour and were prominent at 8 hour treated
DU145 cancer cells
  apoptotic cells stained, POD: Some stained apoptotic DU145 cancer cells were shown
[5]; 70 mg/kg oral
  signs of toxicity (body weight curve, histology slides): no signs of toxicity
[5]; 70 mg/kg oral, 40 days
  TIR (tumor inhibition rate): 64.9%
  tumor weight mean ± SD: 0.071 ± 0.052 g
[5]; 70 mg/kg, eight mice per group
  mice in which the implanted tumor did not grow: two
